In series [1] the test system is MCP-1 levels of rat alveolar epithelial cells. Nature of the series: MCP-1 levels in supernatants of LPS-stimulated rat alveolar epithelial cells (ELISA). In kind it is cell-based. On the procedure: Table 2 MCP-1 levels of rat alveolar epithelial cells measured in supernatants in relation to an exposition to LPS without any substance (positive control=100%)
(§1) METHODS: Different molecules with CF3-group were tested against their corresponding non-fluorinated molecules. The group of molecules with CF3-group included hexafluoroisopropanol, 2,2,3,3,3-pentafluoro-1-propanol, 2,2,2-trifluorethanol, 3-amino-4,4,4-tri-fluorobutyroic acid, methyl-4,4,4-trifluoro-acetoacetate, methyl-trifluoro-acetamide, 5,5,5-trifluorleucine and Sevoflurane. In the group without CFx moieties 2-propanol, 1-propanol, ethanol, leucine, and diethyl ether were included. As well established model rat alveolar epithelial cells (AEC) and human blood microvascular cells (HMVEC) were exposed to phosphate-buffered saline (PBS, negative control) or LPS (20 μg/ml) for 6 hours (positive control). The influence of fluorinated compounds and non-fluorinated reference compounds on the inflammatory response of the cells was tested. Expression of rat-MCP-1 (BD Biosciences, San Diego, Calif.) and human CINC-1 GROa (R&D Systems Europe Ltd.) protein were analyzed by ELISA. Evaluation of possible cytotoxicity was done counting cells by means of fluorescence DNA quantification assays. At the same time release of lactate dehydrogenase into the supernatants was measured (LDH Assay, Promega, Madison, Wis., USA).

Series [2] concerns CINC-1/GROa protein levels of human blood micro vascular endothelial cells. Nature of the series: CINC-1/GROa protein levels in supernatants of LPS-stimulated HMVEC (ELISA). The settings on record: for CINC-1/GROa protein level in relation to LPS without any substance, Median: HMVEC, LPS 20 μg/ml 6 hours, positive control=100%. In kind it is cell-based. On the procedure: Table 1 CINC-1/GROa protein levels of human blood micro vascular endothelial cells measured in supernatants in relation to an exposition to LPS without any substance (positive control=100%)
as §1

Series [3] concerns human microvascular endothelial cells (HMVEC). Nature of the series: Viability and cytotoxicity in HMVEC (LDH release, fluorescence DNA quantification). In kind it is cell-based. The settings on record: LDH release and cell count by fluorescence DNA quantification, in relation to control (100%), FIG. 1. As for the experimental part: Viability is assessed by measuring the release of lactate de-hydrogenase and cytotoxicity is quantified by counting cells by means of fluorescence DNA quantification assays (see example 1). […] Concentration level differences are presented in relation to control (100%).
as §1

For series [4] the following is noted: cited from earlier work.
The conditions of series [5]: cited from earlier work. The source holds these as a separate data set.
The subject of series [6] is inflammatory mediators and tissue damage markers (troponin or serum transaminase levels). Particulars: patients undergoing lung, heart or liver surgery; cited from earlier work.
The subject of series [7] is polymorphonuclear neutrophils. Put plainly: Chemotactic migration of polymorphonuclear neutrophils towards supernatants from LPS-stimulated endothelial cells. In kind it is cell-based. The settings on record: 16 mmol/L, FIG. 2. On the procedure:
Furthermore, the effect of hexafluoro-2-propanol in a concentration of 16 mmol/L on the chemotactic migration of polymorphonuclear neutrophils towards supernatants from LPS-stimulated endothelial cells (right side, 270)° and towards supernatants from LPS-stimulated endothelial cells incubated with hexafluoro-2-propanol (left side, 90°) was assessed according to (De Conno et al., Anesthesiology 2009; 110:1316-1326)

[8] abbreviates: rat AEC, LPS 20 μg/ml 6 hours, 16 mmol/l in culture medium, positive control=100%.
Setting [9] is: rat AEC, LPS 20 μg/ml 6 hours, 32 mmol/l in culture medium, positive control=100%.
[10] abbreviates: rat AEC, LPS 20 μg/ml 6 hours, 64 mmol/l in culture medium, positive control=100%.
Setting [11] is: Epithelial cell, rat AEC, LPS 20 μg/ml 6 hours, 16 mmol/l in culture medium, positive control=100%, read-out: MCP-1 level in relation to LPS without any substance, Median.
The mark [12] stands for this setting: Epithelial cell, rat AEC, LPS 20 μg/ml 6 hours, 64 mmol/l in culture medium, positive control=100%, read-out: MCP-1 level in relation to LPS without any substance, Median.
[13] abbreviates: footnote 1: Qiana et al., Journal of Chromatography A 2007.
The mark [14] stands for this setting: Epithelial cell, rat AEC, LPS 20 μg/ml 6 hours, 32 mmol/l in culture medium, positive control=100%, read-out: MCP-1 level in relation to LPS without any substance, Median.
Where [15] appears, read: Rattus norvegicus, Epithelial cell, 6 h, read-out: MCP-1 level in relation to LPS without any substance, Median.

Where two headings read alike, the source gives them in different places.

As for `CC(N)CC(=O)O` (racemic) [DL-3-Amino-n-butyric acid, reference compound], the “MCP-1 level in relation to LPS without any substance, Median” value in series [1] (rat AEC, LPS 20 μg/ml 6 hours, 8 mmol/l in culture medium, positive control=100%) came to 95%; in series [1] (setting [8]), 91%; in series [1] (setting [9]), 149%; in series [1] (setting [10]), 117%.

Take `CCCO` [1-Propanol, reference compound]: the “CINC-1/GROa protein level in relation to LPS without any substance, Median” value is on record as 82% in series [2] (16 mmol/l in culture medium), 81% in series [2] (32 mmol/l in culture medium) and 64% in series [2] (64 mmol/l in culture medium). Moreover, the “MCP-1 level in relation to LPS without any substance, Median” value in series [1] (setting [8]) was determined as 99%; in series [1] (setting [10]) it was 74%.

Regarding `OCC(F)(F)F` [2,2,2-Trifluorethanol, 2,2,2-Trifluoroethanol], the “CINC-1/GROa protein level in relation to LPS without any substance, Median” value in series [2] (16 mmol/l in culture medium) was 98%; in series [2] (32 mmol/l in culture medium) it was 78%; in series [2] (64 mmol/l in culture medium), 73%. The activity at 16000 µM in series [1] (setting [11]) was determined as 58%. Moreover, the activity at 64000 µM in series [1] (setting [12]) was found to be 59%. Besides, the “Viability and cytotoxicity in HMVEC” value in series [3] is “does not cause significant cytotoxicity”. Also, the “Octanol water partition coefficient” value in series [4] (setting [13]) is recorded as 0.17 ^(1). For the same compound, the Solubility result in series [5] (in words) was “miscible”.

In the case of `OCC(F)(F)C(F)(F)F` [2,2,3,3,3-Pentafluoro-1-propanol], the “CINC-1/GROa protein level in relation to LPS without any substance, Median” value in series [2] (16 mmol/l in culture medium) turned out to be 115%; in series [2] (32 mmol/l in culture medium), 41%; in series [2] (64 mmol/l in culture medium) it was 31%. Further, in series [1] (setting [11]), the activity at 16000 µM turned out to be 92%. Also, in series [1] (setting [12]), the activity at 64000 µM amounted to 70%. In series [5] (25° C.), the Solubility was 21.9 g/L (25° C.).

As for `CC(C)O` [2-Propanol, reference compound], the “CINC-1/GROa protein level in relation to LPS without any substance, Median” value is on record as 109% in series [2] (4 mmol/l in culture medium) and 97% in series [2] (16 mmol/l in culture medium). Further, the “MCP-1 level in relation to LPS without any substance, Median” value was determined as 101% in series [1] (setting [8]), 86% in series [1] (setting [9]) and 82% in series [1] (setting [10]).

In the case of `NC(CC(=O)O)C(F)(F)F` (centres unmarked) [3-Amino-4,4,4-Trifluorobutyroic acid, 3-Amino-4,4,4-trifluorobutyric acid], the melting point lay in the range of 180 to 190 °C. In addition, in series [2] (8 mmol/l in culture medium), the “CINC-1/GROa protein level in relation to LPS without any substance, Median” value was found to be 79%. Also, the “CINC-1/GROa protein level in relation to LPS without any substance, Median” value in series [2] (16 mmol/l in culture medium) came out at 0%. For the same compound, in series [2] (64 mmol/l in culture medium), the “CINC-1/GROa protein level in relation to LPS without any substance, Median” value worked out at 0%. In addition, the activity at 16000 µM in series [1] (setting [11]) came out at 101%. Moreover, in series [1] (setting [14]), the activity at 32000 µM was 44%. The activity at 64000 µM in series [1] (setting [12]) was 0%. In addition, in series [3], the “Viability and cytotoxicity in HMVEC” value was “does not cause significant cytotoxicity”.

Consider `CC(C[C@H](N)C(=O)O)C(F)(F)F` (some centres unmarked) [5,5,5-Trifluorleucine], for which the “MCP-1 level in relation to LPS without any substance, Median” value in series [1] (setting [8]) turned out to be 68%.

In the case of `ClC(Cl)Cl` [Chloroform, reference compound], in series [1] (setting [15]), the activity at 64000 µM was determined as 171%.

For `FC(F)OC(F)C(F)(F)F` (centres unmarked) [Desflurane], the “Octanol water partition coefficient” value in series [4] (footnote 2: Urban et al. 1995) is reported as 28.5. The “Inflammatory mediators and tissue damage markers in patients” value in series [6] is recorded as “significantly reduces”.

As for `CCO` [Ethanol, reference compound], the “CINC-1/GROa protein level in relation to LPS without any substance, Median” value in series [2] (16 mmol/l in culture medium) is reported as 107%; in series [2] (32 mmol/l in culture medium), 91%; in series [2] (64 mmol/l in culture medium) it was 88%. Further, the activity at 16000 µM in series [1] (setting [11]) was found to be 103%. In series [1] (setting [12]), the activity at 64000 µM was 92%.

Consider `FC(F)(F)C(Cl)Br` (centres unmarked) [Halothane], for which the “Octanol water partition coefficient” value in series [4] (footnote 2: Urban et al. 1995) is recorded as 315.

In the case of `OC(C(F)(F)F)C(F)(F)F` [Hexafluoroisopropanol, 1,1,1,3,3,3-Hexafluoropropan-2-ol], the entries for the “CINC-1/GROa protein level in relation to LPS without any substance, Median” value in series [2] (4 mmol/l in culture medium) and in series [2] (16 mmol/l in culture medium) were 49% and 26%, respectively. Besides, in series [2] (LPS stimulation), the “CINC-1 levels of endothelial cells stimulated with LPS (in words)” value is given as “decrease was most pronounced”. For the same compound, in series [1] (Epithelial cell, rat AEC, LPS 20 μg/ml 6 hours, 4 mmol/l in culture medium, positive control=100%, read-out: MCP-1 level in relation to LPS without any substance, Median), the activity at 4000 µM was determined as 98%. Also, the activity at 8000 µM in series [1] (Epithelial cell, rat AEC, LPS 20 μg/ml 6 hours, 8 mmol/l in culture medium, positive control=100%, read-out: MCP-1 level in relation to LPS without any substance, Median) worked out at 101%. Further, the activity at 16000 µM in series [1] (setting [11]) was 63%. Further, the activity at 32000 µM in series [1] (setting [14]) amounted to 11%. In addition, the “MCP-1 levels of epithelial cells stimulated with LPS (in words)” value in series [1] (LPS stimulation) was “decrease was most pronounced”. For the same compound, the “Viability and cytotoxicity in HMVEC” value in series [3] is “does not cause significant cytotoxicity”. Further, the Chemotaxis for neutrophils result in series [7] is recorded as “significantly attenuated chemotaxis”. Further, the “Octanol water partition coefficient” value in series [4] (setting [13]) is on record as 0.37 ^(1). Moreover, the Solubility in series [5] (25° C.) is listed as 1000 g/L (25° C.).

Turning to `FC(F)OC(Cl)C(F)(F)F` (centres unmarked) [Isoflurane], the “Octanol water partition coefficient” value in series [4] (footnote 2: Urban et al. 1995) is given as 156. The “Inflammatory mediators and tissue damage markers in patients” value in series [6] is recorded as “significantly reduces”.

With `CC(C)C[C@H](N)C(=O)O` [Leucine, reference compound], in series [1] (setting [11]), the activity at 16000 µM amounted to 91%.

Regarding `COC(=O)CC(=O)C(F)(F)F` [Methyl-4,4,4-trifluoro-acetoacetate], the activity at 16000 µM in series [1] (setting [11]) is 7%. Moreover, the activity at 32000 µM in series [1] (setting [14]) was 0%.

In the case of `CNC(=O)C(F)(F)F` [Methyltrifluoroacetamide, N-Methyl-2,2,2-trifluoroacetamide], in series [1] (setting [15]), the activity at 8000 µM is 80%, the activity at 16000 µM is 56%, the activity at 32000 µM is 41% and the activity at 64000 µM came out at 0%.

Regarding Enflurane, the “Octanol water partition coefficient” value in series [4] (footnote 2: Urban et al. 1995) is given as 122.

Turning to Sevoflurane, the “MCP-1 level in relation to LPS without any substance, Median” value in series [1] (setting [10]) was 68%. Further, the “Octanol water partition coefficient” value in series [4] (footnote 2: Urban et al. 1995) was 71. In addition, the “Inflammatory mediators and tissue damage markers in patients” value in series [6] is given as “significantly reduces”.
